“Also recorded” adds a separate entry of the source.

Experiment [1] is described as follows: Dissociation kinetics via Cu2+ transmetallation (UV-Vis absorbance). The format is physicochemical. The note with it: for overall kinetic inertness: Cu2+ and Zn2+ transmetallation, all experimental conditions; for nature of the kinetic dissociation curve, Cu2+ exchange: UV-Vis absorbance at 300 nm, all pH and Cu2+ concentrations assessed; for kobs1 / kobs2: 25° C., 0.2 mM chelate; for conversion of Mn chelate during transmetallation: competing Cu2+, FIGS. 9 and 10. On the procedure:
(§1) Kinetic inertness was evaluated at slightly acidic pH due to the slow rate of dissociation of the paramagnetic complex at physiological pH and to the potential hydrolysis of the metal ions at the concentrations used for the experiments and at pH values close to physiological.
The dissociation kinetics of the prior art Mn Chelate, Mn Chelate 4 and Mn Chelate 3 at a concentration of 0.2 mM was assessed via Cu^2+ transmetallation recording the time-dependent change of the UV-Vis absorbance in the presence of an excess of competing metal ion (10 and 40 equivalents of Cu^2+); at 25° C. and different pH (pH: 5.0; 5.2; 5.4). For all assessments, the reaction mixture contained 0.15 M NaCl; 50 mM NMP. The ? for the acquisition of the UV-Vis spectra was selected based on the difference between the observed absorbance for the Mn(II) based chelates (e.g., prior art Mn Chelate, Mn Chelate 3 and Mn Chelate 4) and the newly formed Cu^2+-complex in order to have the best differentiation between the two chemical species. The UV-Vis spectra were acquired at ? =300 nm on a Perkin-Elmer Lambda 19 spectrophotometer. Indeed, the displacement of Mn(II) ion induced by Cu^2+ led to an increase of the observed absorbance at ? =300 nm for all Mn(II) based chelates in all experimental conditions. This increase is due the formation of the Cu^2+-complex.
(§2) For any of the transmetallation experiments carried out with the prior art Mn Chelate (e.g., at different pH; different Zn^2+ or Cu^2+ concentration) it was evident that the variation of the relaxation rate T1 (for the Zn^2+-exchange; FIG. 4) or the variation of the UV-Vis absorbance (for the Cu^2+-exchange; FIG. 5) caused by competing metal ion was a “single phase” process better described as a mono-exponential function. […] The rate of dissociation described by kobs was calculated via equation (1) where [MnL]tot is the total concentration of Mn(II) based chelates and t is the observation time.
These biphasic kinetic curves could be mathematically well fitted with the biexponential equation (2) where A is the observed absorbance; b, A1 and A2 are constants specific for the biphasic dissociation process for a Mn(II) based chelate; kobs1 and kobs2 are the rate constants describing the biphasic dissociation and t is the observation time. A=b−A1e^−k^obs1^t−A2e^−k^obs2t (Equation 2)
The rates of the biphasic dissociation for Mn Chelate 3 and Mn Chelate 4 described by kobs1 and kobs2 and of the monophasic dissociation for the prior art Mn Chelate described by kobs were calculated via equation (2) and (1) respectively for the different experimental conditions utilized in the set of experiments.
From the qualitative comparison of the kinetic curves and preliminary kobs it was evident that Mn Chelate 3 and Mn Chelate 4 dissociate with a different mechanism described by a biexponential function and at a slower rate compared to the prior art Mn Chelate. To quantitatively compare the kinetic inertness of these Mn(II) based chelates, the direct comparison of the evolution of the UV-Vis absorbance at 300 nm was recorded for the Cu^2+ exchange reaction. Direct comparison of the UV-Vis absorbance allowed quantification of the conversion of the Mn(II) based chelates into Cu^2+ based chelates during the transmetallation reaction which can be correlated to the kinetic inertness of the Mn(II) complex. The “conversion” was calculated following equation (3), where At is the absorbance at a time t (or end of the reaction), A0 is the absorbance at time zero (or beginning of the acquisition) and Aeq is the absorbance at the equilibrium.

Experiment [2] in a line: Dissociation kinetics via Zn2+ transmetallation (T1 relaxation time). In kind it is physicochemical. The note with it: for nature of the kinetic dissociation curve, Zn2+ exchange: time dependent T1, 25° C., pH 5.1-5.7. The procedure:
as §1
The dissociation kinetics of Mn(II) based chelates (concentration 1 mM) of the invention was assessed via Zn^2+ transmetallation recording the time-dependent variation of the longitudinal relaxation time (i.e., T1). The assessment was completed in a set of experiments including for the prior art Mn Chelate different concentrations of competing metal ion (5, 10, 20, 40 equivalents of Zn^2+); at 25° C. and different pH (pH: 5.1; 5.4; 5.7). The dissociation kinetics for Mn Chelate 4 (concentration 1 mM) was assessed in the presence of 5 eq of Zn^2+ at 25° C. and pH 5.1 and 5.7. For both assessments, the reaction mixture contained 0.15 M NaCl and 50 mM N-methyl piperazin buffer (i.e., NMP). The longitudinal relaxation time changes were monitored at 1 MHz for the prior art Mn Chelate and at 0.01 MHz for Mn Chelate 4. Indeed, the release of the free Mn^2+ ion induced by Zn^2+ leads to a decrease of the relaxation time for both Mn(II) based chelates evaluated in all experimental conditions. […]
as §2

Take `CN(C[C@H](O)[C@@H](O)[C@H](O)[C@H](O)CO)C(=O)CCCN1CCN2Cc3cccc(n3)CN(CC1)C(CCC(=O)N(C)C[C@H](O)[C@@H](O)[C@H](O)[C@H](O)CO)C(=O)[O][Mn][O]C(=O)C2CCC(=O)N(C)C[C@H](O)[C@@H](O)[C@H](O)[C@H](O)CO` (stereo partly shown) [Mn Chelate 3]: in experiment [1], the overall kinetic inertness result is “evident improvement in overall kinetic inertness” and the “nature of the kinetic dissociation curve, Cu2+ exchange” value (“nature … Cu2+ exchange” below) was “biphasic nature”. In experiment [1] (pH = 5.0, CCu2+ 0.002 M), this molecule showed a kobs1 of 0.483 min⁻¹ and a kobs2 of 0.0023 min⁻¹. For the same molecule, in experiment [1] (pH = 5.0, CCu2+ 0.008 M), the kobs1 turned out to be 0.378 min⁻¹ and the kobs2 is 0.0024 min⁻¹. Further, in experiment [1] (pH = 5.2, CCu2+ 0.002 M), the kobs1 amounted to 0.303 min⁻¹ and the kobs2 was 0.0015 min⁻¹.

In the case of `CN1CCN2Cc3cccc(n3)CN(CC1)C(CCC(=O)N(C)C[C@H](O)[C@@H](O)[C@H](O)[C@H](O)CO)C(=O)[O][Mn][O]C(=O)C2CCC(=O)N(C)C[C@H](O)[C@@H](O)[C@H](O)[C@H](O)CO` (stereo partly shown) [Mn Chelate 4], in experiment [2] (FIG. 11, versus prior art Mn Chelate), the “kinetic inertness from conversion, Zn2+ transmetallation” value is recorded as “superior kinetic inertness”. Also, the “nature of the kinetic dissociation curve, Zn2+ exchange” value in experiment [2] is “biphasic behaviour”. Besides, in experiment [1], the overall kinetic inertness entry was “evident improvement in overall kinetic inertness; also recorded: most kinetically inert compound examined”; the “nature … Cu2+ exchange” value is “biphasic nature”; the “conversion of Mn chelate during transmetallation” value was “dissociates even slower”. Also, in experiment [1] (pH = 5.0, CCu2+ 0.002 M), the kobs1 came out at 0.340 min⁻¹ and the kobs2 stood at 0.0013 min⁻¹. In experiment [1] (pH = 5.0, CCu2+ 0.008 M), this molecule gave a kobs1 of 0.190 min⁻¹ and a kobs2 of 0.0009 min⁻¹. For the same molecule, in experiment [1] (pH = 5.2, CCu2+ 0.002 M), the kobs1 came to 0.240 min⁻¹ and the kobs2 came out at 0.0009 min⁻¹. In experiment [1] (pH = 5.4, CCu2+ 0.002 M), this molecule gave a kobs1 of 0.201 min⁻¹ and a kobs2 of 0.001 min⁻¹.

Consider `CN1CCN2CC(=O)[O][Mn][O]C(=O)CN(CC1)Cc1cccc(n1)C2` [Prior Art Mn Chelate, reference compound], for which the “nature of the kinetic dissociation curve, Zn2+ exchange” value in experiment [2] was “single phase”. The “nature … Cu2+ exchange” value in experiment [1] was “single phase”. Also, in experiment [1], the “conversion of Mn chelate during transmetallation” value was “reaches a full conversion at much shorter time point than Mn Chelate 3”. Besides, the kobs1 was found to be 0.034 min⁻¹ in experiment [1] (pH = 5.0, CCu2+ 0.002 M); 0.035 min⁻¹ in experiment [1] (pH = 5.0, CCu2+ 0.008 M); 0.022 min⁻¹ in experiment [1] (pH = 5.2, CCu2+ 0.002 M); 0.017 min⁻¹ in experiment [1] (pH = 5.4, CCu2+ 0.002 M).
